{"source": "paper PMC8568133", "about": "“Evaluation of bisphenylthiazoles as a promising class for combating multidrug-resistant fungal infections” (PLoS ONE, 2021)", "origin": "cited, not measured here", "key": {"MRSA USA300": {"test_system": "MRSA USA300", "set-up": "method as in PMID 30247876", "conditions": "previous observations; cited from earlier work"}, "[1]": {"set-up": "method as in PMID 30247876", "conditions": "reactive metabolite formation, previous observations; cited from earlier work"}}, "data": [{"smiles": "Cc1nc(-c2ccc(-c3ccccc3)cc2)sc1-c1nnc(NN)o1", "note": "[Compound 1]", "values": [{"measurement": "MIC (MRSA)", "setting": "MRSA USA300", "value": 3, "unit": "µg/mL"}, {"measurement": "GSH trap", "setting": "[1]", "value": "+ve"}]}]}
